Patent publication EP0341681B1, “6-Phenoxymethyl-4-hydroxytetrahydropyran-2-ones and 6-thiophenoxymethyl-4-hydroxytetrahydropyran-2-ones, the corresponding dihydrocarboxylic-acid derivatives, salts and esters, process for preparing these compounds, their use as medicines, pharmaceutical compositions and phenols and thiophenols” (HOECHST AKTIENGESELLSCHAFT, priority 1988, dated 1989)
Where two headings read alike, the source gives them in different places.

How the values were obtained:
[1] = molecular target: T1, HMG-CoA-Reduktase in HEP G2-Zellkulturen (Homo sapiens, UniProt P04035); experiment: Inhibition of 14C-sodium acetate incorporation into cholesterol in HEP G2 cell cultures; format: cell-based; details: for relative Wirkstärke: Mevinolin-Natrium = 100; for IC70: HepG2, 3 h, read-out: IC₇₀
T1 sequence (P04035 1-888): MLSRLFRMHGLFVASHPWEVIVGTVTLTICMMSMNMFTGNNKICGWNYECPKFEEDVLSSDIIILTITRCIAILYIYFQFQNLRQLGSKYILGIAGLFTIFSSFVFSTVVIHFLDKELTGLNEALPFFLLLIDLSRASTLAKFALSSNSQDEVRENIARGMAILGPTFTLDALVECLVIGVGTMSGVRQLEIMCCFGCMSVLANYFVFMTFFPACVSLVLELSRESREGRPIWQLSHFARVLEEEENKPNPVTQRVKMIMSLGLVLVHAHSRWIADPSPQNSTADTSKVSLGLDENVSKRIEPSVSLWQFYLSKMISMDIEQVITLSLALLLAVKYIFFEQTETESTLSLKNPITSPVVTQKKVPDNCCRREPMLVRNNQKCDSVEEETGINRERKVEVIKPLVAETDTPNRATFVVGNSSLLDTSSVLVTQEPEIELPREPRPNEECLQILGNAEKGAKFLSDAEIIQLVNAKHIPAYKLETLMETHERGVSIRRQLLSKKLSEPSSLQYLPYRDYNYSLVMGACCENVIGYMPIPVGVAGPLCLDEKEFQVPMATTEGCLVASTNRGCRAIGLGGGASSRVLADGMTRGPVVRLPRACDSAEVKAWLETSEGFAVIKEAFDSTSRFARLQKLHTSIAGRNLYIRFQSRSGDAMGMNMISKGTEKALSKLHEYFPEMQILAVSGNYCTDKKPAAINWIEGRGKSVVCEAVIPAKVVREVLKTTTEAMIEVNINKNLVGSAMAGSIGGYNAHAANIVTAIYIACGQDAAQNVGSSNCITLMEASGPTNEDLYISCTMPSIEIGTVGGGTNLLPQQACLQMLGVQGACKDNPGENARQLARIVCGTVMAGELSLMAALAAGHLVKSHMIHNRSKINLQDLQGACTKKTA
Text: 2) Supprimierung bzw. Inhibierung der HMG-CoA-Reduktase in HEP G2-Zellkulturen (einer Human-Hepatoma-Zell-Linie) Es erfolgte eine Bestimmung der Inhibition des Einbaus von ¹⁴C-Natriumacetat in Cholesterin. Monolayers von HEP G2-Zellen in RPMJ 1640 Medium mit 10 % von Lipiden befreitem fötalem Kälberserum wurden 1 Stunde mit verschiedenen Konzentrationen der Natriumsalze der Dihydroxycarbonsäuren der Formel II präinkubiert. Nach Zugabe von ¹⁴C-markiertem Natriumacetat wurde die Inkubation 3 Std. fortgesetzt. Tritium-markiertes Cholesterin wurde als interner Standard zugefügt und ein Aliquot der Zellen alkalisch verseift. Die Lipide wurden mit Chloroform/Methanol 2:1 extrahiert. Nach Zugabe von Carrier-Cholesterin wurde das Lipidgemisch präparativ auf DC-Platten mit Chloroform/Aceton 9:1 getrennt. Die Cholesterin-Zone wurde durch Anfärben mit Joddampf sichtbar gemacht, außerdem mit einem DC-Radioscanner detektiert und dann abgeschabt. Die Menge ¹⁴C-Cholesterin wurde szintigraphisch bestimmt. In einem anderen Aliquot der Zell-Monolayers wurde (zur Berechnung der ¹⁴C-Cholesterinbiosynthese pro mg Zell-Protein) das Zellprotein gemessen. Dieselbe Prozedur wurde mit Zellen der gleichen Kultur ohne Präinkubation mit einer Testverbindung durchgeführt (sogenannte "Lösungsmittelkontrolle"). Die Wirkstärke der Testverbindungen wurde bestimmt durch Vergleich des biosynthetisierten ¹⁴C-Cholesterins in Testläufen und bei "Lösungsmittelkontrolle". Die Wirkstärke wurde auf der Basis von Mevinolin-Natriumsalz als externer Standard berechnet. […] Die gemessenen IC's für Testverbindungen (Natriumsalze der Dihydroxycarbonsäuren der Formel II) (Tab. 2) wurden um die Abweichung von Mevinolin-Natrium von seinem Durchschnittswert korrigiert. Mevinolin-Natrium wurde eine relative Wirkstärke von 100 zugewiesen.

[2] = molecular target: T2, HMG-CoA-Reduktase (Rattus norvegicus, UniProt P51639); experiment: Inhibition of HMG-CoA reductase activity in solubilised enzyme preparations from rat liver microsomes; format: biochemical, Ratten; details: sodium salts of the dihydroxycarboxylic acids of formula II; substrate (S,R) 14C-HMG-CoA; mean of 3 parallel samples; read-out: IC₅₀
T2 construct: solubilisierten Enzympräparationen aus Ratten-Lebermikrosomen; from tissue; host or cells: rat liver microsomes (cholestyramine-induced rats)
T2 sequence (P51639 1-887): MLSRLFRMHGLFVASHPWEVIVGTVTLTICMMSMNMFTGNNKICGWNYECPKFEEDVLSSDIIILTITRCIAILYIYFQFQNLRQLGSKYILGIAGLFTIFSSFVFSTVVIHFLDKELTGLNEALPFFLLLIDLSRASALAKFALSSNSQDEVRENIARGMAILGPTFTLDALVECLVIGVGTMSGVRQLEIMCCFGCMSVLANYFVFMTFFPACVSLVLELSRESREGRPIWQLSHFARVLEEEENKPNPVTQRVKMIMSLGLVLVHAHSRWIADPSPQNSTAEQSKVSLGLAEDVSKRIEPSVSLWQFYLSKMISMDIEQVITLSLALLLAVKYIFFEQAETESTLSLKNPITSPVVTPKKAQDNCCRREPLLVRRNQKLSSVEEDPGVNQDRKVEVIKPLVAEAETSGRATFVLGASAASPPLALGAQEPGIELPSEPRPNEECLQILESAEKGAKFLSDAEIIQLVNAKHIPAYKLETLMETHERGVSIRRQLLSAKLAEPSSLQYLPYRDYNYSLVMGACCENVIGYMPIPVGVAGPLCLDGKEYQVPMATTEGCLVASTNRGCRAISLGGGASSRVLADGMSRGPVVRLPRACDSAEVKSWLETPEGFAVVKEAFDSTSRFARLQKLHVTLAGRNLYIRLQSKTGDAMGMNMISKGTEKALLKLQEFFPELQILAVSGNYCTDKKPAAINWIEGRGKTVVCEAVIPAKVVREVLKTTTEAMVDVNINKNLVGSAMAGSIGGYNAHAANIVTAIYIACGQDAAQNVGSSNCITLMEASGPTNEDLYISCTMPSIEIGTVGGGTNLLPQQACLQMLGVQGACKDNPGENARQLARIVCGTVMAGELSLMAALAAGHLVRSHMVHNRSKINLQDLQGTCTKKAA
Text: Die HMG-CoA-Reduktase-Aktivität der Natriumsalze der erfindungsgemäßen Verbindungen der Formel II wurde in zwei Testsystemen bestimmt 1) Inhibierung der HMG-CoA-Reduktase-Aktivität an solubilisierten Enzympräparationen aus Ratten-Lebermikrosomen Die HMG-CoA-Reduktase-Aktivität wurde an solubilisierten Enzympräparationen aus Lebermikrosomen von Ratten gemessen, die nach Umstellung im Tag-Nacht-Rhythmus mit Cholestyramin (®Cuemid) induziert wurden. Als Substrat diente (S,R) ¹⁴C-HMG-CoA, die Konzentration von NADPH wurde während der Inkubation durch ein regenerierendes System aufrechterhalten. Die Abtrennung von ¹⁴C-Mevalonat von Substrat und anderen Produkten (z.B. ¹⁴C-HMG) erfolgte über Säulenelution, wobei das Elutionsprofil jeder Einzelprobe ermittelt wurde. Auf die ständige Mitführung von ³H-Mevalonat wurde verzichtet, weil es sich bei der Bestimmung um die Relativangabe der Hemmwirkung handelt. In einer Versuchsreiche wurden jeweils die enzymfreie Kontrolle, der enzymhaltige Normalansatz (= 100 %) und solche mit Präparatezusätzen zusammen behandelt. Jeder Einzelwert wurde als Mittelwert aus 3 Parallelproben gebildet. Die Signifikanz der Mittelwertsunterschiede zwischen präparatefreien und präparatehaltigen Proben wurde nach dem t-Test beurteilt. Nach der oben beschriebenen Methode wurden von den erfindungsgemäßen Verbindungen z.B. folgende Hemmwerte auf die HMG-CoA-Reduktase ermittelt (IC₅₀- (mol/l); molare Konzentration der Verbindung pro Liter, die für eine 50 %ige Hemmung erforderlich ist) Tabelle 1

[3] = value outside parentheses (matches ratio of IC50 values)

## CC(C)c1cc(-c2ccccc2)cc(-c2ccc(F)cc2)c1OC[C@@H](O)C[C@@H](O)CC(=O)O [Beispiel 8d, 3(R),5(S)-Dihydroxy-6-[2-isopropyl-4-phenyl-6-(4-fluorphenyl)-phenoxy-]-hexansäure-Natriumsalz]
[1]; [3]
  relative Wirkstärke: 53
[2]
  IC50: 23 nM

## CC(C)c1cc(C2CCCCC2)cc(-c2ccc(F)cc2)c1OC[C@@H](O)C[C@@H](O)CC(=O)O [Beispiel 8e, 3(R),5(S)-Dihydroxy-6-[2-isopropyl-4-cyclohexyl-6-(4-fluorphenyl)-phenoxy]-hexansäure-Natriumsalz]
[2]
  IC50: 5.2 nM

## CC(C)c1cc(-c2ccc(F)cc2)cc(-c2ccc(F)cc2)c1SC[C@@H](O)C[C@@H](O)CC(=O)O [Beispiel 8g, 3(R),5(S)-Dihydroxy-6-[2-isopropyl-4,6-bis-(4-fluorphenyl)-thiophenoxy]-hexansäure-Natriumsalz]
[2]
  IC50: 36 nM

## CCC(C)C(=O)OC1CC(C)C=C2C=CC(C)C(CCC(O)CC(O)CC(=O)O)C21 (centres unmarked) [Mevinolin-Natriumsalz, reference compound]
[1]; mean value over different cell batches, external standard
  IC70: 150 nM

## CC(C)c1cc(-c2ccc(F)cc2)cc(-c2ccc(F)cc2)c1OC[C@@H](O)C[C@@H](O)CC(=O)O [Beispiel 8c, 3(R),5(S)-Dihydroxy-6-[2-isopropyl-4,6-bis-(4-fluorphenyl)-phenoxy]-hexansäure-Natriumsalz]
[1]; [3]
  relative Wirkstärke: 56
[2]
  IC50: 17 nM

## CC(C)c1cc(C(C)(C)C)cc(-c2ccc(F)cc2)c1OC[C@@H](O)C[C@@H](O)CC(=O)O [Beispiel 8b, 3(R),5(S)-Dihydroxy-6-[2-isopropyl-4-tert.-butyl-6-(4-fluorphenyl)-phenoxy]-hexansäure-Natriumsalz]
[1]; [3]
  relative Wirkstärke: < 1
[2]
  IC50: > 100 nM

## CC(C)c1cc(-c2ccc(F)cc2)c(SC[C@@H](O)C[C@@H](O)CC(=O)O)c(C(C)C)c1 [Beispiel 8f, 3(R),5(S)-Dihydroxy-6-[2-(4-fluorphenyl)-4,6-diisopropylthiophenoxy]-hexansäure-Natriumsalz]
[2]
  IC50: 4.8 nM

## CC(C)c1cc(-c2ccc(F)cc2)c(OC[C@@H](O)C[C@@H](O)CC(=O)O)c(C(C)C)c1 [Beispiel 8a, 3(R),5(S)-Dihydroxy-6-[2-(4-fluorphenyl)-4,6-diisopropylphenoxy]-hexansäure-Natriumsalz]
[1]; concentration for 70 % inhibition, sodium salts, corrected for the deviation of Mevinolin-Natrium from its mean value
  IC70: 70 nM
[1]; value in parentheses (matches ratio of IC70 values)
  relative Wirkstärke: 214
[1]; [3]
  relative Wirkstärke: 185
[2]
  IC50: 2.3 nM
